From patent publication US8101601B2, “Aminoacyl prodrug derivatives and medicaments for the treatment of thromboembolitic disorders” (Bayer Pharma Aktiengesellschaft, priority 2007, dated 2012)
Counter-ions that a name gives are not always drawn.

Columns and labels:
[1] = Determination of the solubility (suspension shaken 24 h at room temperature, HPLC); format: physicochemical; details: thermodynamic from solid
Description: […] This suspension is shaken at room temperature for 24 h. After ultracentrifugation at 224 000 g for 30 min, the supernatant is diluted with DMSO and analysed by HPLC. A two-point calibration plot of the test compound in DMSO is used for quantification.
Agilent 1100 with DAD (G1315A), quat. pump (G1311A), autosampler CTC HTS PAL, degasser (G1322A) and column thermostat (G1316A); column: Zorbax Extend-C18 3.5μ; temperature: 40° C.; eluent A: water+5 ml of perchloric acid/liter, eluent B: acetonitrile; flow rate: 0.7 ml/min; gradient: 0-0.5 min 98% A, 2% B; ramp 0.5-4.5 min 10% A, 90% B; 4.5-6 min 10% A, 90% B; ramp 6.5-6.7 min 98% A, 2% B; 6.7-7.5 min 98% A, 2% B.

[2] = Stability in buffer at various pH values (HPLC, 37° C., 24 h); format: physicochemical
Description: 0.3 mg of the test substance is weighed into a 2 ml HPLC vial and 0.5 ml of acetonitrile is added. The substance is dissolved by putting the sample vessel in an ultrasonic bath for about 10 seconds. Then 0.5 ml of the respective buffer solution is added, and the sample is again treated in the ultrasonic bath.
• pH 4.0:1 liter of Millipore water is adjusted to pH 4.0 with 1 N hydrochloric acid; • pH 7.4: 90 g of sodium chloride, 13.61 g of potassium dihydrogen phosphate and 83.35 g of 1 M sodium hydroxide solution are made up to 1 liter with Millipore water and then diluted 1:10.
5 μl portions of the test solution are analysed by HPLC for their content of unchanged test substance every hour over a period of 24 hours at 37° C. The percentage areas of the appropriate peaks are used for quantification.
Agilent 1100 with DAD (G1314A), binary pump (G1312A), autosampler (G1329A), column oven (G1316A), thermostat (G1330A); column: Kromasil 100 C18, 125 mm×4.6 mm, 5 μm; column temperature: 30° C.; eluent A: water+5 ml of perchloric acid/liter, eluent B: acetonitrile.
The ratios of the peak areas (F) at the respective time points in relation to the peak areas at the starting time are shown in Table 2 for representative exemplary embodiments: […]

[3] = In vitro stability in rat plasma (LC/MS-MS detection); format: in vitro ADME, Wistar rats; details: Wistar rat plasma, 37° C.
Description: A defined plasma volume (e.g. 2.0 ml) is warmed to 37° C. in a closed test tube in a waterbath. After the intended temperature is reached, a defined amount of the test substance is added as solution (volume of the solvent not more than 2% of the plasma volume). The plasma is shaken and a first sample (50-100 μl) is immediately taken. Then 4-6 further aliquots are taken in the period up for 2 h after the start of incubation.
Acetonitrile is added to the plasma samples to precipitate proteins. After centrifugation, the test substance and, where appropriate, known cleavage products of the test substance in the supernatant are determined quantitatively with a suitable LC/MS-MS method.
The concentrations c of the compound of Example 6 and of the active ingredient compound (A) liberated therefrom determined at various times in the plasma of Wistar rats are shown in Table 3:
The concentrations c of the compound of Example 13 and of the active ingredient compound (A) liberated therefrom determined at various times in the plasma of Wistar rats are shown in Table 4: […]

[4] = In vitro stability in rat plasma (HPLC detection); format: in vitro ADME; details: 37° C., read-out: half-life of degradation to liberate compound (A)
Description: 1 mg of substance is dissolved in 1.25 ml of dimethyl sulphoxide. Then 1.25 ml of water are added. 500 μl of this sample solution are mixed with 500 μl of rat plasma at 37° C. and shaken. A first sample (10 μl) is immediately taken for HPLC analysis. In the period up to 2 h after the start of incubation, further aliquots are taken after 2, 5, 10, 30, 60 and 90 min, and the content of the respective test substance and of the active ingredient compound (A) liberated therefrom is determined.
Agilent 1100 with DAD (G1314A), binary pump (G1312A), autosampler (G1329A), column oven (G1316A), thermostat (G1330A); column: Kromasil 100 C18, 250 mm×4.6 mm, 5 μm; column temperature: 30° C.; eluent A: water+5 ml of perchloric acid/liter, eluent B: acetonitrile.

[5] = buffer pH 4, 37° C., hydrochloride

| Compound | solubility at 24 h ([1]; dilute hydrochloric acid (pH 4), pH 4, aqueous buffer, room temperature, 24 h) [µg/mL] | % test substance after 4 h [F(t = 4 h) × 100/F(t = 0 h)] ([2]; buffer pH 4, 37° C.) [%] | % Test substance after 24 h [F(t = 24 h) × 100/F(t = 0 h)] ([2]; buffer pH 4, 37° C.) [%] | % test substance after 4 h [F(t = 4 h) × 100/F(t = 0 h)] ([2]; buffer pH 7.4, 37° C.) [%] | % Test substance after 24 h [F(t = 24 h) × 100/F(t = 0 h)] ([2]; buffer pH 7.4, 37° C.) [%] | c of test substance ([3]; incubation time 0 h) [mg/L] | c of test substance ([3]; incubation time 0.08 h) [mg/L] | c of test substance ([3]; incubation time 0.17 h) [mg/L] | solubility at 24 h ([1]; 5% dextrose adjusted to pH 4 with hydrochloric acid, pH 4, saline or isotonic) [µg/mL] | % test substance after 4 h [F(t = 4 h) × 100/F(t = 0 h)] [2, 5] [%] | % Test substance after 24 h [F(t = 24 h) × 100/F(t = 0 h)] [2, 5] [%] | half-life at 0.2 mg/ml [4] [min] |
| --- | --- | --- | --- | --- | --- | --- | --- | --- | --- | --- | --- | --- |
| CC(C)[C@@H](N)C(=O)OCC(=O)N(C[C@H]1CN(c2ccc(N3CCOCC3=O)cc2)C(=O)O1)C(=O)c1ccc(Cl)s1 [Example 6, 2-[[(5-Chloro-2-thienyl)carbonyl]({(5S)-2-oxo-3-[4-(3-oxomorpholin-4-yl)phenyl]-1,3-oxazolidin-5-yl}methyl)amino]-2-oxoethyl D-valinate hydrochloride] | 860 | 100 | 98 | 90 | 59 | 0.403 | 0.0756 | 0.0079 | – | – | – | – |
| CNCCCC(=O)N(C[C@H]1CN(c2ccc(N3CCOCC3=O)cc2)C(=O)O1)C(=O)c1ccc(Cl)s1 [Example 13, 5-Chloro-N-[4-(methylamino)butanoyl]-N-({(5S)-2-oxo-3-[4-(3-oxomorpholin-4-yl)phenyl]-1,3-oxazolidin-5-yl}methyl)thiophene-2-carboxamide hydrochloride] | – | – | – | – | – | 0.5 | – | – | 2700 | 99 | 91 | < 2 |
